Source: the supplement of paper PMC11451515

Key:
Details in all cases: 48 h
[1] = test system: P12-Ichikawa; assay: cell viability relative to DMSO control; higher = less cytotoxic
Outline: (§1)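 Viability was expressed as a per-plate percentage of DMSO wells, with cell-free wells as background. Leukemia cells (NOMO1 or SEM at 500 cells/well, P12-Ichikawa at 1000 cells/well) were adapted for at least four passages in each medium and seeded in 1536-well plates (5 μl). Library compounds in DMSO were pin-dosed over an 11-point threefold series from 47 μM to 0.79 nM, and CellTiter-Glo One luminescence was read after 48 h at 37°C.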

[2] = test system: SEM cells; assay: as above
Outline: as §1

[3] = test system: NOMO1; assay: as above
Outline: as §1

[4] = test system: P12-Ichikawa; assay: AUC of viability dose-response curve (% viability x log10 dose units); higher = less sensitive
Outline: (§2)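 Library compounds in DMSO were applied for 48 h at 37°C at 11 threefold doses (47 μM to 0.79 nM) to medium-adapted leukemia cells in 1536-well plates holding 500 or 1000 cells/well. Luminescence from CellTiter-Glo One was normalised plate by plate against DMSO and cell-free wells. Area under the curve came from trapezoidal integration of a log-logistic fit, after scaling curves that rose above full viability and discarding those that failed quality control. The fit had four parameters and used log10 doses.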

[5] = test system: SEM cells; assay: as above
Outline: as §2

[6] = test system: NOMO1; assay: as above
Outline: as §2

[7] = HPLM + 10% dialyzed FBS, 0.000781 µM
[8] = HPLM + 10% dialyzed FBS, 0.00234 µM
[9] = HPLM + 10% dialyzed FBS, 0.00702 µM
[10] = HPLM + 10% dialyzed FBS, 0.0211 µM
[11] = HPLM + 10% dialyzed FBS, 0.0632 µM
[12] = HPLM + 10% dialyzed FBS, 0.19 µM
[13] = HPLM + 10% dialyzed FBS, 0.569 µM
[14] = HPLM + 10% dialyzed FBS, 1.71 µM
[15] = HPLM + 10% dialyzed FBS, 5.12 µM
[16] = HPLM + 10% dialyzed FBS, 15.4 µM
[17] = HPLM + 10% dialyzed FBS, 46.1 µM
[18] = RPMI 5 mM glucose + 10% FBS, 0.000781 µM
[19] = RPMI 5 mM glucose + 10% FBS, 0.00234 µM
[20] = RPMI 5 mM glucose + 10% FBS, 0.00702 µM
[21] = RPMI 5 mM glucose + 10% FBS, 0.0211 µM
[22] = RPMI 5 mM glucose + 10% FBS, 0.0632 µM
[23] = RPMI 5 mM glucose + 10% FBS, 0.19 µM
[24] = RPMI 5 mM glucose + 10% FBS, 0.569 µM
[25] = RPMI 5 mM glucose + 10% FBS, 1.71 µM
[26] = RPMI 5 mM glucose + 10% FBS, 5.12 µM
[27] = RPMI 5 mM glucose + 10% FBS, 15.4 µM
[28] = RPMI 5 mM glucose + 10% FBS, 46.1 µM
[29] = RPMI 5 mM glucose + 10% dialyzed FBS, 0.000781 µM
[30] = RPMI 5 mM glucose + 10% dialyzed FBS, 0.00234 µM
[31] = RPMI 5 mM glucose + 10% dialyzed FBS, 0.00702 µM
[32] = RPMI 5 mM glucose + 10% dialyzed FBS, 0.0211 µM
[33] = RPMI 5 mM glucose + 10% dialyzed FBS, 0.0632 µM
[34] = RPMI 5 mM glucose + 10% dialyzed FBS, 0.19 µM
[35] = RPMI 5 mM glucose + 10% dialyzed FBS, 0.569 µM
[36] = RPMI 5 mM glucose + 10% dialyzed FBS, 1.71 µM
[37] = RPMI 5 mM glucose + 10% dialyzed FBS, 5.12 µM
[38] = RPMI 5 mM glucose + 10% dialyzed FBS, 15.4 µM
[39] = RPMI 5 mM glucose + 10% dialyzed FBS, 46.1 µM
[40] = RPMI 5 mM glucose + 10% dialyzed FBS

CN(CCOc1ccc(CC2SC(=O)NC2=O)cc1)c1ccccn1 (centres undefined)
cell viability [1, 7]: 116%
cell viability [1, 8]: 124%
cell viability [1, 9]: 113%
cell viability [1, 10]: 121%
cell viability [1, 11]: 116%
cell viability [1, 12]: 115%
cell viability [1, 13]: 120%
cell viability [1, 14]: 114%
cell viability [1, 15]: 114%
cell viability [1, 16]: 111%
cell viability [1, 17]: 103%
cell viability [1, 18]: 123%
cell viability [1, 19]: 130%
cell viability [1, 20]: 122%
cell viability [1, 21]: 116%
cell viability [1, 22]: 120%
cell viability [1, 23]: 125%
cell viability [1, 24]: 129%
cell viability [1, 25]: 125%
cell viability [1, 26]: 115%
cell viability [1, 27]: 113%
cell viability [1, 28]: 106%
cell viability [1, 29]: 123%
cell viability [1, 30]: 123%
cell viability [1, 31]: 127%
cell viability [1, 32]: 119%
cell viability [1, 33]: 116%
cell viability [1, 34]: 123%
cell viability [1, 35]: 127%
cell viability [1, 36]: 118%
cell viability [1, 37]: 113%
cell viability [1, 38]: 112%
cell viability [1, 39]: 97.4%
cell viability [2, 7]: 116%
cell viability [2, 8]: 117%
cell viability [2, 9]: 121%
cell viability [2, 10]: 106%
cell viability [2, 11]: 113%
cell viability [2, 12]: 123%
cell viability [2, 13]: 117%
cell viability [2, 14]: 115%
cell viability [2, 15]: 124%
cell viability [2, 16]: 121%
cell viability [2, 17]: 116%
cell viability [2, 18]: 76.7%
cell viability [2, 19]: 94.7%
cell viability [2, 20]: 85.4%
cell viability [2, 21]: 102%
cell viability [2, 22]: 84.2%
cell viability [2, 23]: 81.9%
cell viability [2, 24]: 90.5%
cell viability [2, 25]: 95.1%
cell viability [2, 26]: 85.7%
cell viability [2, 27]: 97.3%
cell viability [2, 28]: 104%
cell viability [2, 29]: 107%
cell viability [2, 30]: 119%
cell viability [2, 31]: 113%
cell viability [2, 32]: 117%
cell viability [2, 33]: 113%
cell viability [2, 34]: 107%
cell viability [2, 35]: 112%
cell viability [2, 36]: 106%
cell viability [2, 37]: 121%
cell viability [2, 38]: 114%
cell viability [2, 39]: 122%
cell viability [3, 18]: 110%
cell viability [3, 19]: 113%
cell viability [3, 20]: 121%
cell viability [3, 21]: 108%
cell viability [3, 22]: 115%
cell viability [3, 23]: 117%
cell viability [3, 24]: 113%
cell viability [3, 25]: 112%
cell viability [3, 26]: 127%
cell viability [3, 27]: 113%
cell viability [3, 28]: 109%
AUC of viability dose-response curve ([4]; HPLM + 10% dialyzed FBS): 467
AUC of viability dose-response curve ([4]; RPMI 5 mM glucose + 10% FBS): 465
AUC of viability dose-response curve [4, 40]: 462
AUC of viability dose-response curve ([5]; HPLM + 10% dialyzed FBS): 469
AUC of viability dose-response curve ([5]; RPMI 5 mM glucose + 10% FBS): 433
AUC of viability dose-response curve [5, 40]: 466
AUC of viability dose-response curve ([6]; HPLM + 10% dialyzed FBS): 442
AUC of viability dose-response curve ([6]; RPMI 5 mM glucose + 10% FBS): 474
AUC of viability dose-response curve [6, 40]: 443

C[C@H](CCC(=O)O)[C@H]1CC[C@H]2[C@@H]3[C@H](O)C[C@@H]4C[C@H](O)CC[C@]4(C)[C@H]3CC[C@]12C
cell viability [1, 7]: 94.6%
cell viability [1, 8]: 87.9%
cell viability [1, 9]: 93.9%
cell viability [1, 10]: 92.4%
cell viability [1, 11]: 98.8%
cell viability [1, 12]: 97.5%
cell viability [1, 13]: 93.3%
cell viability [1, 14]: 92.8%
cell viability [1, 15]: 92.2%
cell viability [1, 16]: 93.9%
cell viability [1, 17]: 94.2%
cell viability [1, 18]: 91%
cell viability [1, 19]: 88.4%
cell viability [1, 20]: 89.2%
cell viability [1, 21]: 91.7%
cell viability [1, 22]: 90.5%
cell viability [1, 23]: 90.1%
cell viability [1, 24]: 90.7%
cell viability [1, 25]: 90%
cell viability [1, 26]: 88.1%
cell viability [1, 27]: 89.8%
cell viability [1, 28]: 95.6%
cell viability [1, 29]: 81.1%
cell viability [1, 30]: 82.7%
cell viability [1, 31]: 93.3%
cell viability [1, 32]: 93%
cell viability [1, 33]: 89.6%
cell viability [1, 34]: 85.3%
cell viability [1, 35]: 88.2%
cell viability [1, 36]: 87.2%
cell viability [1, 37]: 86.5%
cell viability [1, 38]: 85.9%
cell viability [1, 39]: 91.1%
cell viability [2, 7]: 79.7%
cell viability [2, 8]: 80.7%
cell viability [2, 9]: 96.3%
cell viability [2, 10]: 80.3%
cell viability [2, 11]: 99.9%
cell viability [2, 12]: 84%
cell viability [2, 13]: 95%
cell viability [2, 14]: 92.5%
cell viability [2, 15]: 93.5%
cell viability [2, 16]: 84.1%
cell viability [2, 17]: 75.5%
cell viability [2, 18]: 75.4%
cell viability [2, 19]: 81.9%
cell viability [2, 20]: 90.3%
cell viability [2, 21]: 96.9%
cell viability [2, 22]: 87.6%
cell viability [2, 23]: 76.5%
cell viability [2, 24]: 91%
cell viability [2, 25]: 80.2%
cell viability [2, 26]: 99.1%
cell viability [2, 27]: 81.9%
cell viability [2, 28]: 67%
cell viability [2, 29]: 87.5%
cell viability [2, 30]: 93.7%
cell viability [2, 31]: 105%
cell viability [2, 32]: 95%
cell viability [2, 33]: 85.5%
cell viability [2, 34]: 79.4%
cell viability [2, 35]: 91.4%
cell viability [2, 36]: 92.2%
cell viability [2, 37]: 95.3%
cell viability [2, 38]: 95.1%
cell viability [2, 39]: 79.7%
cell viability [3, 7]: 93.9%
cell viability [3, 8]: 93.7%
cell viability [3, 9]: 108%
cell viability [3, 10]: 99.5%
cell viability [3, 11]: 106%
cell viability [3, 12]: 98.4%
cell viability [3, 13]: 102%
cell viability [3, 14]: 99%
cell viability [3, 15]: 101%
cell viability [3, 16]: 120%
cell viability [3, 17]: 114%
cell viability [3, 18]: 85%
cell viability [3, 19]: 88.1%
cell viability [3, 20]: 92.9%
cell viability [3, 21]: 88.6%
cell viability [3, 22]: 101%
cell viability [3, 23]: 87.1%
cell viability [3, 24]: 102%
cell viability [3, 25]: 91.2%
cell viability [3, 26]: 93.5%
cell viability [3, 27]: 90.3%
cell viability [3, 28]: 83%
cell viability [3, 29]: 73%
cell viability [3, 30]: 80.4%
cell viability [3, 31]: 82.5%
cell viability [3, 32]: 84.9%
cell viability [3, 33]: 88.9%
cell viability [3, 34]: 88.8%
cell viability [3, 35]: 83%
cell viability [3, 36]: 79.8%
cell viability [3, 37]: 89.2%
cell viability [3, 38]: 99.2%
cell viability [3, 39]: 92.4%
AUC of viability dose-response curve ([4]; HPLM + 10% dialyzed FBS): 448
AUC of viability dose-response curve ([4]; RPMI 5 mM glucose + 10% FBS): 431
AUC of viability dose-response curve [4, 40]: 418
AUC of viability dose-response curve ([5]; HPLM + 10% dialyzed FBS): 417
AUC of viability dose-response curve ([5]; RPMI 5 mM glucose + 10% FBS): 406
AUC of viability dose-response curve [5, 40]: 433
AUC of viability dose-response curve ([6]; HPLM + 10% dialyzed FBS): 443
AUC of viability dose-response curve ([6]; RPMI 5 mM glucose + 10% FBS): 436
AUC of viability dose-response curve [6, 40]: 409
